In patent US20200101068A1, “Heteroaryl Derivatives as PARP Inhibitors” (Lupin Limited, priority 2015, published 2020):

biological target: T1, PARP1 (Homo sapiens, UniProt P09874); assay: PARP1 biochemical assay (BPS Bioscience kit, chemiluminescent); conditions: histone-coated plate, biotinylated NAD+, 60 min at 25° C., luminescence; read-out: PARP 1 inhibition IC50
T1 construct: purchased BPS Bioscience
Experimental: Example 16: PARP1 Biochemical Assay
The assay was performed using BPS Bioscience kit. The 96-well strip plate was coated with 50 μl of histone mixture and incubated at 4° C. overnight. The next day, the wells were blocked by adding 100 μl of blocking buffer. The plate was washed and 25 μl of appropriate concentration of PARP1 (25-75 ng/well) was added in all of the Test and Positive control wells. In the Negative control wells, the enzyme was replaced with 25 μl of water. 5 μl each of 10× PARP assay buffer and activated DNA was added in all the wells (Test, Positive and Negative control wells). 10× concentration of the test compounds were prepared and 5 μl test compounds were added to the respective wells. The reaction volume was made up to 45 μl by adding water to all of the wells. 5 μl of 10× PARP assay mixture containing biotinilated NAD^+ was added in each well and the plate was incubated at ambient temperature (25° C.) for 60 min. After washing the plate 50 μl of Streptavidin-HRP was added in each well, the plate was incubated at RT for 30 min. The plate was washed and the luminescence was read in PHERAStar plate reader after adding 100 μl of chemiluminescent substrate.
PARP inhibition was calculated using the following formula:
% PARP inhibition=100−[(RLU test compound treated sample−RLU negative control)/(RLU Positive control−RLU negative control)×100]
IC50 values were calculated by plotting % inhibition against the respective concentrations of test compounds using GraphPad Prism 5.

T1 sequence (P09874 whole entry): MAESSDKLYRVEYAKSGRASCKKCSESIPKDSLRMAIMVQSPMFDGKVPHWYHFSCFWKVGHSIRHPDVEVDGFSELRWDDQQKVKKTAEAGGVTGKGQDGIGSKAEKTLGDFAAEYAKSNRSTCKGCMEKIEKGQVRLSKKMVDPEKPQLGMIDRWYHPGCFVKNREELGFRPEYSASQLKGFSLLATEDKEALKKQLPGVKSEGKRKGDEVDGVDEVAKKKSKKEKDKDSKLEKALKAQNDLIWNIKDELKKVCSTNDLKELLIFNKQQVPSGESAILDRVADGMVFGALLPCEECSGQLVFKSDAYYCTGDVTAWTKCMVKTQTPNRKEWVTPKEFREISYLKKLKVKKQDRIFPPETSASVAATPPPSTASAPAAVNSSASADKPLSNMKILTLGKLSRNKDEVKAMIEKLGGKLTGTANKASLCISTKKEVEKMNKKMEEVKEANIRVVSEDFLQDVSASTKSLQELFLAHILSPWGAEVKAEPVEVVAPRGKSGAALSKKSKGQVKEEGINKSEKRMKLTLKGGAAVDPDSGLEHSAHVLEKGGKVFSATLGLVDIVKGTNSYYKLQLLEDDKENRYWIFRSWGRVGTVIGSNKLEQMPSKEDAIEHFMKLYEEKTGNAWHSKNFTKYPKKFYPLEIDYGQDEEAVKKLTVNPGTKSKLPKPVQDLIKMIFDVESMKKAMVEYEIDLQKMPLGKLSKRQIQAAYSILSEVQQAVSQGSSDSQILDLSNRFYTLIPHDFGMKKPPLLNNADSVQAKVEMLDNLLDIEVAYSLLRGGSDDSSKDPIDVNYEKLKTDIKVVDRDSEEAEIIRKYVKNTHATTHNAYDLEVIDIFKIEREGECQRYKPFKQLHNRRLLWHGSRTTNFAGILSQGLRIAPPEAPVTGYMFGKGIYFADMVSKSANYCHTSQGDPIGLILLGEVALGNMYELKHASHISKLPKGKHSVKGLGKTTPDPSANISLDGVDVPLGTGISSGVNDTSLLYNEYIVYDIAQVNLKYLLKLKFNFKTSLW

Row | Compound | IC50 [nM]
1 | N#Cc1ccc(N2CCN([C@H]3C=C(c4cc5cnccc5c(=O)[nH]4)CC3)CC2)cc1 [Compound 36, (R)-4-(4-(3-(1-oxo-1,2-dihydro-2,6-naphthyridin-3-yl)cyclopent-2-en-1-yl)piperazin-1-yl)benzonitrile] | 0.5 to 5
2 | N#Cc1ccc(N2CCN([C@H]3C=C(c4cc5cccnc5c(=O)[nH]4)CC3)CC2)cc1 [Compound 37, (R)-4-(4-(3-(8-oxo-7,8-dihydro-1,7-naphthyridin-6-yl)cyclopent-2-en-1-yl)piperazin-1-yl)benzonitrile] | 0.5 to 5
3 | N#Cc1ccc(N2CCN([C@H]3C=C(c4cc5ccncc5c(=O)[nH]4)CC3)CC2)cc1 [Compound 38, (R)-4-(4-(3-(1-oxo-1,2-dihydro-2,7-naphthyridin-3-yl)cyclopent-2-en-1-yl)piperazin-1-yl)benzonitrile] | 0.5 to 5
4 | O=c1[nH]c(C2=C[C@H](N3CCN(c4ccc(F)cc4F)CC3)CC2)cc2ncccc12 [Compound 39, (R)-7-(3-(4-(2,4-difluorophenyl)piperazin-1-yl)cyclopent-1-en-1-yl)-1,6-naphthyridin-5(6H)-one] | 0.5 to 5
5 | N#Cc1ccc(N2CCN([C@H]3C=C(c4cc5nccnc5c(=O)[nH]4)CC3)CC2)cc1 [Compound 41, (R)-4-(4-(3-(5-oxo-5,6-dihydropyrido[3,4-b]pyrazin-7-yl)cyclopent-2-en-1-yl)piperazin-1-yl)benzonitrile] | 5.1 to 50
6 | N#Cc1ccc(N2CCN([C@H]3C=C(c4cc5ncsc5c(=O)[nH]4)CC3)CC2)cc1 [Compound 43, (R)-4-(4-(3-(4-oxo-4,5-dihydrothiazolo[5,4-c]pyridin-6-yl)cyclopent-2-en-1-yl)piperazin-1-yl)benzonitrile] | 0.5 to 5
7 | O=c1[nH]c(C2=C[C@H](N3CCN(c4ccccc4)CC3)CC2)cc2sccc12 [Compound 48, (R)-6-(3-(4-phenylpiperazin-1-yl)cyclopent-1-en-1-yl)thieno[3,2-c]pyridin-4(5H)-one] | 0.5 to 5
8 | CNC(=O)c1ccc(N2CCN([C@H]3C=C(c4cc5sccc5c(=O)[nH]4)CC3)CC2)cc1 [Compound 49, (R)—N-methyl-4-(4-(3-(4-oxo-4,5-dihydrothieno[3,2-c]pyridin-6-yl)cyclopent-2-en-1-yl)piperazin-1-yl)benzamide] | 0.5 to 5
9 | O=c1[nH]c(C2=C[C@H](N3CCN(c4nccs4)CC3)CC2)cc2sccc12 [Compound 51, (R)-6-(3-(4-(thiazol-2-yl)piperazin-1-yl)cyclopent-1-en-1-yl)thieno[3,2-c]pyridin-4(5H)-one] | 5.1 to 50
10 | N#Cc1ccc(N2CCN([C@H]3C=C(c4cc5ncsc5c(=O)[nH]4)CC3)CC2)c(F)c1 [Compound 52, (R)-3-fluoro-4-(4-(3-(4-oxo-4,5-dihydrothiazolo[5,4-c]pyridin-6-yl)cyclopent-2-en-1-yl)piperazin-1-yl)benzonitrile] | 0.5 to 5
11 | N#Cc1ccc(N2CCN([C@H]3C=C(c4cc5cccn5c(=O)[nH]4)CC3)CC2)cc1 [Compound 54, (R)-4-(4-(3-(1-oxo-1,2-dihydropyrrolo[1,2-c]pyrimidin-3-yl)cyclopent-2-en-1-yl)piperazin-1-yl)benzonitrile] | 0.5 to 5
12 | N#Cc1ccc(N2CCN([C@H]3C=C(c4cn5cccc5c(=O)[nH]4)CC3)CC2)cc1 [Compound 56, (R)-4-(4-(3-(1-oxo-1,2-dihydropyrrolo[1,2-a]pyrazin-3-yl)cyclopent-2-en-1-yl)piperazin-1-yl)benzonitrile] | 0.5 to 5

The remaining lines, values ahead:

Row | IC50 [nM] | Compound
13 | 0.5 to 5 | N#Cc1ccc(N2CCN([C@H]3C=C(c4cc5ncncc5c(=O)[nH]4)CC3)CC2)cc1 [Compound 40, (R)-4-(4-(3-(5-oxo-5,6-dihydropyrido[4,3-d]pyrimidin-7-yl)cyclopent-2-en-1-yl)piperazin-1-yl)benzonitrile]
14 | 0.5 to 5 | N#Cc1ccc(N2CCN([C@H]3C=C(c4cc5sccc5c(=O)[nH]4)CC3)CC2)cc1 [Compound 42, (R)-4-(4-(3-(4-oxo-4,5-dihydrothieno[3,2-c]pyridin-6-yl)cyclopent-2-en-1-yl)piperazin-1-yl)benzonitrile]
15 | 0.5 to 5 | N#Cc1ccc(N2CCN([C@H]3C=C(c4cc5scnc5c(=O)[nH]4)CC3)CC2)cc1 [Compound 44, (R)-4-(4-(3-(4-oxo-4,5-dihydrothiazolo[4,5-c]pyridin-6-yl)cyclopent-2-en-1-yl)piperazin-1-yl)benzonitrile]
16 | 5.1 to 50 | N#Cc1ccc(N2CCN([C@@H]3C=C(c4cc5sccc5c(=O)[nH]4)CC3)CC2)cc1 [Compound 45, (S)-4-(4-(3-(4-oxo-4,5-dihydrothieno[3,2-c]pyridin-6-yl)cyclopent-2-en-1-yl)piperazin-1-yl)benzonitrile]
17 | 0.5 to 5 | O=c1[nH]c(C2=C[C@H](N3CCN(c4ccc(F)cc4)CC3)CC2)cc2sccc12 [Compound 47, (R)-6-(3-(4-(4-fluorophenyl)piperazin-1-yl)cyclopent-1-en-1-yl)thieno[3,2-c]pyridin-4(5H)-one]
18 | 0.5 to 5 | N#Cc1ccc(N2CCN([C@H]3C=C(c4cc5sccc5c(=O)[nH]4)CC3)CC2)nc1 [Compound 50, (R)-6-(4-(3-(4-oxo-4,5-dihydrothieno[3,2-c]pyridin-6-yl)cyclopent-2-en-1-yl)piperazin-1-yl)nicotinonitrile]
19 | 0.5 to 5 | O=c1[nH]c(C2=C[C@H](N3CCN(c4ccc(F)cc4)CC3)CC2)cc2cccn12 [Compound 55, (R)-3-(3-(4-(4-fluorophenyl)piperazin-1-yl)cyclopent-1-en-1-yl)pyrrolo [1,2-c]pyrimidin-1(2H)-one]
